{"source": "patent US10876098B2", "about": "“Polynucleotide, host cell and a method to recombinantly produce the protein encoded by said polynucleotide having peroxygenative activity” (CONSEJO SUPERIOR DE INVESTIGACIONES CIENTIFICAS (CSIC), priority 2015, dated 2020)", "biological_target": "T1, Agrocybe aegerita peroxygenase AaeUPO1 variant SoLo (JaWa + F191S: V57A, L67F, V75I, F191S, G241D, I248V, R257K, F311L), SEQ ID NO: 42 (Cyclocybe aegerita, UniProt B9W4V6, F234S/F354L/G284D/I291V/L110F/R300K/V100A/V118I)", "T1 sequence (B9W4V6 44-371 V100A/L110F/V118I/F234S/G284D/I291V/R300K/F354L)": "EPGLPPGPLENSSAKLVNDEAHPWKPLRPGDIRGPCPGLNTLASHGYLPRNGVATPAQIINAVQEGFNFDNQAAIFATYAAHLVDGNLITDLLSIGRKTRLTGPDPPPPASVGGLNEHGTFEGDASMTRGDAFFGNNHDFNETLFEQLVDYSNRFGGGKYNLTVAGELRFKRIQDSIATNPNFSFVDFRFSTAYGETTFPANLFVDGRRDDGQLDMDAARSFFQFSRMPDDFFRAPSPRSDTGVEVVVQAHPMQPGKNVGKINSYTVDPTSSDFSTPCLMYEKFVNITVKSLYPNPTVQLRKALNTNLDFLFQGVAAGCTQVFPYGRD", "assay": "Kinetic constants, SoLo variant", "settings": "SoLo vs parental JaWa, ABTS", "excerpt": "In order to calculate the values of Km and kcat, values of Vmax were represented at substrate concentrations and the hyperbole function was adjusted (using SigmaPlot 10.0, wherein the parameter a is equal to kcat and the parameter b, to Km).", "data": [{"smiles": "CCn1c(=NN=c2sc3cc(S(=O)(=O)O)ccc3n2CC)sc2cc(S(=O)(=O)O)ccc21", "note": "[ABTS, 2,2′-azino-bis(3-ethylbenzothiazolin-6-sulfonic acid)]", "values": [{"measurement": "affinity to the substrate with respect to its parental", "value": "three fold worse"}]}]}
